Source: PMC10220917, “Transdermal Delivery of α-Aminophosphonates as Semisolid Formulations—An In Vitro-Ex Vivo Study” (Pharmaceutics, 2023)
Where “and” joins values, the source holds several entries; their conditions need not be identical. Identical values can stand only once.

Assays:
[1] = Drug penetration in static Franz diffusion cells through excised rat skin; type: in vitro ADME, male Wistar rats; settings: 2% cream, Franz cell, 32 °C
Method: In the ex vivo experiments, the abdominal skin of male Wistar rats (ToxiCoop, Budapest, Hungary), with 520–609 g bodyweight, were used. The animals had free access to food and water before the study. The experiments were performed in compliance with the guidelines of the Association for Assessment and Accreditation of Laboratory Animal Care International and were in accordance with the spirit of the license issued by the Directorate for the Safety of the Food Chain and Animal Health, Budapest, and Pest Agricultural Administrative Authority, Hungary (PE/EA/4122-7/2016). The rats were anaesthetized intraperitoneally with chloral hydrate (400 mg/kg). The abdominal surface was shaved with an electric shaver and epilated with an epilator cream (X-epil, Aveola Kft., Budapest, Hungary). […] The double-layered skin (pinched together by hand) thickness of the epilated tape-stripped skin was measured with an engineer’s micrometer (Asimeto, Budapest, Hungary). […]
Hanson 6-Cell Manual Diffusion Test System-type vertical diffusion cells (Franz cell) were used (Hanson Research Corp., Chatsworth CA, USA; ABL&E-JASCO Hungary Kft., Budapest, Hungary, Figure 1A). […] The weight of the sample was measured with analytical accuracy. […]

[2] = Particle size (droplet size) distribution of 2% creams by laser diffraction; type: physicochemical; settings: 2% cream formulation
Description: α-Aminophosphonates were dispersed in the following hydrophilic cream base (O/W emulsion ointments): 46 m/m% Petrolatum ointment base, 10 m/m% Propylene glycol (Hungaropharma Zrt., Budapest, Hungary), 4 m/m% Paraffin oil (Hungaropharma Zrt., Budapest, Hungary), 38 m/m% Purified water. The components of the Petrolatum ointment base were 26 m/m% Vaselinum album (Hungaropharma Zrt., Budapest, Hungary), 12 m/m% Cetostearyl alcohol (Molar Chemicals Kft, Halásztelek, Hungary), 10 m/m% Propylene glycol, 8 m/m% Paraffin oil, 4 m/m% Polyoxyethylene sorbitan monostearate (Poly-sorbate 60) (Hungaropharma Zrt. Budapest, Hungary), and 40 m/m% Purified water (Table 3). The concentration of propylene glycol was set based on the recommendations on topical dosage forms.
The particle size distribution was measured with a Malvern Mastersizer2000 (Malvern Instruments Ltd., Malvern, UK) laser diffraction device. In total, 1 g of sample was dispersed in 10 mL of water, and after 1 min of Vortex shaking, 1 mL was taken and added to the sample dispenser unit containing 100 mL of purified water. The dispenser unit was applied at 1500 RPM.
The multi-channel detector system measured the scattering of red laser light with a wavelength of […], and the evaluation software provided the results after three parallel exposures according to the Fraunhofer method. The average curves were calculated from three parallel measurements. […]

[3] = Drug penetration in dynamic skin-on-a-chip microfluidic diffusion chamber through excised rat skin; type: in vitro ADME, male Wistar rats; settings: 2% cream; for Cmax (cumulative mass penetrated through excised skin): dynamic cell, excised rat skin, 5 h; for Effect of higher temperature on absorption across excised skins: 32 °C vs 23.5 °C, dynamic diffusion cells
Method: In the ex vivo experiments, the abdominal skin of male Wistar rats (ToxiCoop, Budapest, Hungary), with 520–609 g bodyweight, were used. The animals had free access to food and water before the study. The experiments were performed in compliance with the guidelines of the Association for Assessment and Accreditation of Laboratory Animal Care International and were in accordance with the spirit of the license issued by the Directorate for the Safety of the Food Chain and Animal Health, Budapest, and Pest Agricultural Administrative Authority, Hungary (PE/EA/4122-7/2016). The rats were anaesthetized intraperitoneally with chloral hydrate (400 mg/kg). The abdominal surface was shaved with an electric shaver and epilated with an epilator cream (X-epil, Aveola Kft., Budapest, Hungary). The skin was washed, wiped dry and mechanically sensitized 10 times by tape stripping with leucoplast (BSN Medical GmbH, Hamburg, Germany) to remove the upper layers of dead keratinocytes. This technique enables reaching detectable concentrations in the dermis and hypodermis. The double-layered skin (pinched together by hand) thickness of the epilated tape-stripped skin was measured with an engineer’s micrometer (Asimeto, Budapest, Hungary). The average double-layered skin thickness was 1.53 ± 0.03 mm. After the first cutting with blunt Metzen scissors, connecting tissue, fat and blood vessels were carefully removed. For the Franz diffusion cell and skin-on-a-chip studies, full-thickness skin incisions were made by punches (Stubai GmbH, Fulpmes, Austria) in diameter of 35 mm and 18 mm, respectively. The excised samples were wrapped in aluminium foil and stored in a deep freezer at −80 °C. On the day of the study, the skin preparations were taken out from the freezer for 30 min before the initiation of the experiment and thawed at room temperature.
The skin-on-a-chip microfluidic diffusion chamber is a polydimethylsiloxane-based system in an aluminium frame (Figure 1B). Similar to the Franz diffusion cells, it contains two compartments, and the membrane or skin is placed between them. The major advantage of this technique is the reduction in needed volumes and pieces in the required components, membranes and skins, as discussed in detail in our previous papers. The diffusion surface is 0.5 cm^2, which separates the aminophosphonate cream-containing donor chamber and the PPF-filled receptor chamber. Contrary to the static Franz diffusion cells, the microfluidic diffusion chamber is a dynamic system, i.e., the PPF flow is continuous in the receptor compartment, ensured by a syringe pump (NE-1000, New Era, Farmingdale, NY, USA), which includes a 5 mL syringe filled with PPF, at a flow rate of 4 µL/min during the experiment. The PPF solution was running through the chip, filling the receptor chamber and the microfluidic channel and leaving the device at the outlet into collection vials. The samples were collected every 30 min for 5 h. The collected samples were placed on dry ice and stored at −80 °C until the bioanalysis. First, the experiments were performed at room temperature (23.5 °C) with temperature regulation by automatic air conditioning system in the lab in three parallels. The investigations were then repeated at 32 °C, putting the whole system into an incubator (Steriliser SN160, Memmert GmbH, Schwabach, Germany). As the volume capacity of incubator was low, only one syringe pump and skin-on-a-chip could be tested in the instrument at the same time. […]

[4] = Drug release in dynamic skin-on-a-chip microfluidic diffusion chamber through cellulose acetate membrane; type: in vitro ADME; settings: 2% cream
Method: (§1) For the in vitro studies, cellulose acetate filter with pore size of 0.45 μm (Sartorius AG, Göttingen, Germany) was cut to size (35 mm and 18 mm diameter discs for Franz diffusion cell and skin-on-a-chip microfluidic system, respectively) and soaked in isopropyl myristate (Molar Chemicals Kft., Halásztelek, Hungary) for 30 min before the experiment. The excess of isopropyl myristate was removed, and the impregnated cellulose acetate membrane was placed into the Franz diffusion cell or microfluidic diffusion chamber.
The skin-on-a-chip microfluidic diffusion chamber is a polydimethylsiloxane-based system in an aluminium frame (Figure 1B). Similar to the Franz diffusion cells, it contains two compartments, and the membrane or skin is placed between them. The major advantage of this technique is the reduction in needed volumes and pieces in the required components, membranes and skins, as discussed in detail in our previous papers. The diffusion surface is 0.5 cm^2, which separates the aminophosphonate cream-containing donor chamber and the PPF-filled receptor chamber. […]
(§2) The Franz diffusion cell data and the skin-on-a-chip data were averaged, and the means and standard error of the mean (SE) were calculated and presented. Area under the curve (AUC) values were calculated using Origin Pro software. […]

[5] = system: multidrug-resistant (MDR) uterine sarcome cell line; parameters: method as in earlier work; settings: MDR uterine sarcoma cells; cited from earlier work
[6] = Drug release in static Franz diffusion cells through cellulose acetate membrane; type: in vitro ADME; settings: 2% cream, Franz cell, 32 °C
Method: as §1
Hanson 6-Cell Manual Diffusion Test System-type vertical diffusion cells (Franz cell) were used (Hanson Research Corp., Chatsworth CA, USA; ABL&E-JASCO Hungary Kft., Budapest, Hungary, Figure 1A). Each unit was composed of a donor chamber, which was filled with 1000 µL of the aminophosphonate cream by a Microman E piston gel positive replacement pipette (Gilson, Middleton, WI, USA). The sample was layered in a uniform layer on the top of the membrane. The weight of the sample was measured with analytical accuracy. […]
as §2

CCOP(=O)(OCC)C(NCc1ccccc1)c1ccccc1 (stereo not drawn) [1a]
Penetration profile in rat skin [1]: almost linear growing profile | Cmax (cumulative mass penetrated through excised skin) ([1]; excised rat skin, 5 h): ~ 21 µg/cm^2 | Particle (droplet) size d of main peak [2]: 33.156 µm and 33 µm | Volume share at main particle size peak [2]: 7% | Cmax (cumulative mass penetrated through excised skin) ([3]; 32 °C): ~ 9 µg/cm^2 | Cmax (cumulative mass penetrated through excised skin) ([3]; ambient temperature (23.5 °C)): ~ 2.8 μg/cm^2 | Effect of higher temperature on absorption across excised skins [3]: significantly improved | Cmax (cumulative mass released through membrane) ([4]; dynamic cell, cellulose acetate membrane, 32 °C, 5 h): ~ 300 µg/cm^2 | Effect of higher temperature on penetration through membranes ([4]; 32 °C vs 23.5 °C, dynamic diffusion cells): only moderately enhanced | Degree of cytotoxicity [5]: less cytotoxic | Penetration kinetics in the membrane [6]: rapid and saturating | Cmax (cumulative mass released through membrane) ([6]; cellulose acetate membrane, 5 h): ~ 330 µg/cm^2

CCOP(=O)(OCC)C(NCc1ccccc1)c1ccc(C)cc1 (stereo not drawn) [1b]
Particle (droplet) size d of main peak [2]: 30–40 µm | Particle (droplet) size d of second peak [2]: 110 µm | Volume share at main particle size peak [2]: about 6.3% | Volume share at second particle size peak [2]: about 3.2% | Effect of higher temperature on absorption across excised skins [3]: practically independent of the temperature | Degree of cytotoxicity [5]: most effective

CCOP(=O)(OCC)C(NCc1ccccc1)c1ccc(Cl)cc1 (stereo not drawn) [1c]
Particle (droplet) size d of main peak [2]: 20–30 µm | Particle (droplet) size d of second peak [2]: 110 µm | Volume share at main particle size peak [2]: 7.3% | Volume share at second particle size peak [2]: ~ 3.0% | Effect of higher temperature on absorption across excised skins [3]: significantly improved | Degree of cytotoxicity [5]: most effective
